We go through four molecules from patent US9034877B2 (Wayne State University, priority 2009, dated 2015).

Entries after “also recorded” stand apart in the source; their conditions may differ.

For one assay, the target named is T1, hD3 receptor (Homo sapiens, UniProt P35462).
T1 construct: expressed in transfected cells; host or cells: CHO
The assay can be described thus: Stimulation of [35S]GTPγS binding, hD3 receptor expressed in CHO cells. Type of assay: biochemical. A general note: GTPγS resists hydrolysis and so accumulates on activated G proteins.

A further assay concerns reserpinized rats. The assay can be described thus: Reversal of reserpine-induced hypolocomotion in rats. The assay is classed as in vivo, rat. The settings on record: 10 μMol/kg; for Reversal of reserpine-induced hypolocomotion (horizontal locomotor activity): (−)19b i.p., ropinirole s.c., 18 h after reserpine 5 mg/kg s.c., 6 h. From the text: Administration of reserpine induces catalepsy in rodents primarily by blocking the vesicular monoamine trasporter (VMAT) which helps in the internalization of monoamines into vesicles, resulting in metabolism of unprotected monoamines in the cytosol that ultimately causes depletion of monoamines in the synapse of the peripheral sympathetic nerve terminals. The ability of the compound (-)-19b to reverse the reserpine induced hypolocomotion was investigated. Ropinirole was used as standard reference compound in this study. Reserpine (5.0 mg/kg, s.c.) or saline (s.c.) were administered 18 h before the injection of drug or vehicle (i.p.). The rats were placed individually in chambers for 1 h for acclimatization purpose before the administration of the test drug, standard drug or vehicle. Immediately after administration of drug or vehicle, animals were individually placed in […] animal activity monitor chamber (45×30×20 cm) (AccuScan Instruments, Inc. Columbus, Ohio) to start measuring locomotor activity. Locomotion was monitored for 6 h. Consecutive interruption of two infrared beams situated 24 cm apart and 4 cm above the cage floor in the monitor chamber recorded movement. The data were presented as horizontal counts (HACTV). The effect of the individual doses of drugs on locomotor activity was compared with respect to saline treated controls (mean±S.E.M.). The data were analyzed by one way analysis of variance (ANOVA) followed by Dunnett's post-hoc test.

Another assay has as its system 6-OHDA lesioned rats. The assay can be described thus: Rotational experiment with 6-OHDA unilaterally lesioned rats. The assay is classed as in vivo, rat.
For assay [1] the following is noted: background statement; cited from earlier work.

T1 sequence (P35462 whole entry): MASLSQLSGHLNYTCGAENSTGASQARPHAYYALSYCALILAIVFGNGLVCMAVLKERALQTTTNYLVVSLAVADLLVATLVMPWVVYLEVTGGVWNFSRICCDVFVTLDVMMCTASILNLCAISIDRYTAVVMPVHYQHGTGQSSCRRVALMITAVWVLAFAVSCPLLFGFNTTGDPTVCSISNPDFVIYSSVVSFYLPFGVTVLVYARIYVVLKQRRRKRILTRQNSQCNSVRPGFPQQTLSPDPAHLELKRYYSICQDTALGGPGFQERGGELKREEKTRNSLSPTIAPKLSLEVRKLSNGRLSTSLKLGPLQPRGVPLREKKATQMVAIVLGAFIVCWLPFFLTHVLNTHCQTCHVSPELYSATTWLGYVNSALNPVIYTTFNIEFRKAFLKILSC

For `CCCN(CCN1CCN(c2ccnc3c(O)cccc23)CC1)C1CCc2c(O)cccc2C1` (single isomer, unassigned; (-)) [Compound (−)19b, (−)-4-(4-(2-((5-hydroxy-1,2,3,4-tetrahydronaphthalen-2-yl) (propyl)amino)ethyl)piperazin-1-yl)quinolin-8-ol], the “Agonism at D3 compared with dopamine” value on hD3 receptor is listed as “full or near-complete agonism”. Further, the “Reversal of reserpine-induced hypolocomotion (horizontal locomotor activity)” value with reserpinized rats is “highly efficacious; also recorded: significantly different”. The “Rotational activity at the higher dose” value in the assay on 6-OHDA lesioned rats (1 μMol/kg (0.61 mg/kg), 11 h) was “remained high at the termination of the experiments”.

Take `C#CCNCc1ccc(O)c2ncccc12` [Compound M30, 5-((prop-2-ynylamino)methyl)quinolin-8-ol]: the “Activity in animal experiments” value in assay [1] was “antioxidant and neuroprotective”.

Take `OCCN1CCN(Cc2ccc(O)c3ncccc23)CC1` [VK 28, 5-((4-(2-hydroxyethyl)piperazin-1-yl)methyl)quinolin-8-ol]: in assay [1], the “Activity in animal experiments” value was “antioxidant and neuroprotective”.

With `CCCN(CCC)CCc1cccc2c1CC(=O)N2` [ropinirole, reference compound], the “Agonism at D3 compared with dopamine” value on hD3 receptor is listed as “full or near-complete agonism”. Also, the “Reversal of reserpine-induced hypolocomotion (horizontal locomotor activity)” value in the assay on reserpinized rats is on record as “significantly different”. In the assay with reserpinized rats (compared with (−)19b), the “Duration of action in reserpinized rats” value is listed as “much shorter duration of action”. In the assay with 6-OHDA lesioned rats (5 μMol/kg), the “Rotations and duration of action” value was “much less rotations with shorter duration of action”. The “Effect on rotations compared to vehicle (Dunnett)” value in the assay with 6-OHDA lesioned rats ((−)19b two doses i.p., ropinirole) is recorded as “significant”.
